Values after ≈ are worked out from the molar mass of the structure shown. Read-outs that look alike come from different tables or passages of the source. No end group written: not given here.
Key:
Cryptococcus neoformans = test: microbe, parasite or virus in culture; settings: for Minimum inhibitory concentration, Cryptococcus neoformans: ATCC 28957, RPMI 1640 pH 7.0, 37 °C, 72 h, start 2.5 x 10^3 cells, 256-0.5 µM, mean ± SD of 3 biological repetitions (SD 0 not displayed), N/A = no antimicrobial activity observed
Method: (§1) The susceptibility test of microorganisms was performed to evaluate the inhibitory activity of the IAPs. Protocols M7-A10[50], M27-A3[51] and M38-A2[52] from Clinical & Laboratory Standards Institute (CLSI) were used for bacteria, yeasts and filamentous fungi tests, respectively. Briefly, different concentration of IAPs (256-0.5 µM) were tested against 16 microorganisms, in a final volume of 100 µL. Media conditions, final cell concentration and incubation conditions are presented in Supplementary Material 07, Table S5. Three biological repetitions, with 2 technical replicates each, were performed for each test, on polystyrene flat-bottom 96 wells microplates. The minimum inhibitory concentration (MIC) was defined as the concentration that no cells/hyphae were detected when visualized by optical microscopy.
(§2) Supplementary Material 07, Table S5
(§3) Table S5. Microorganisms and growth conditions.

Candida albicans = test: microbe, parasite or virus in culture; settings: for Minimum inhibitory concentration, Candida albicans: ATCC 90028, RPMI 1640 pH 7.0, 37 °C, 48 h, start 2.5 x 10^3 cells, 256-0.5 µM, mean ± SD of 3 biological repetitions (SD 0 not displayed), no cells seen by optical microscopy, N/A = no antimicrobial activity observed
Method: as §1, §2, §3

human red blood cells = test: Cytotoxicity: hemolysis of human red blood cells; format: cell-based
Method: The cytotoxicity of the selected IAPS was performed using human red blood cells in strict accordance with relevant guidelines and regulations (Ethical committee – UnB # 1.939.989). Different concentrations of IAPs (128 µM–0.5 µM) were incubated with a final concentration of 2.5 × 10^5 red blood cells.mL^−1. Briefly, 100 µL of red blood cells was incubated with 100 µL of different concentrations of each IAP, prepared in PBS, for 30 minutes at 37 °C, with constant shaking at 120 rpm. PBS and Triton X-100 0.1% (v/v) were used as negative and positive controls, respectively. After incubation, the solution was centrifuged at 900 × g for five minutes followed by transferring 50 µL of the supernatant to flat-bottom polystyrene 96-well micro plates containing 50 µL of PBS. Microplate reading was performed at a BioTek Multireader, using a wavelength of 540 nm. All tests were performed in 3 biological replicates, composed of 3 biological repetitions each. The obtained data was subtracted by the negative control and relative to the positive control, defined as 100% lysis.

Bacillus subtilis = test: microbe, parasite or virus in culture; settings: ATCC 23857; Mueller-Hinton; 37 °C, 24 h; start 5.0 x 10^5 cells; 256-0.5 µM; mean ± SD of 3 biological repetitions (SD 0 not displayed); N/A = no antimicrobial activity observed
Method: as §1, §2, §3

Pseudomonas aeruginosa = test: microbe, parasite or virus in culture; settings: ATCC 27853; Mueller-Hinton; 37 °C, 24 h; start 5.0 x 10^5 cells; 256-0.5 µM; mean ± SD of 3 biological repetitions (SD 0 not displayed); N/A = no antimicrobial activity observed
Method: as §1, §2, §3

Escherichia coli = test: microbe, parasite or virus in culture; settings: ATCC 25922; Mueller-Hinton; 37 °C, 24 h; start 5.0 x 10^5 cells; 256-0.5 µM; mean ± SD of 3 biological repetitions (SD 0 not displayed); N/A = no antimicrobial activity observed
Method: as §1, §2, §3

Bacillus cereus = test: microbe, parasite or virus in culture; settings: ATCC 14579; Mueller-Hinton; 37 °C, 24 h; start 5.0 x 10^5 cells; 256-0.5 µM; mean ± SD of 3 biological repetitions (SD 0 not displayed); N/A = no antimicrobial activity observed
Method: as §1, §2, §3

Staphylococcus aureus = test: microbe, parasite or virus in culture; settings: ATCC 25923; Mueller-Hinton; 37 °C, 24 h; start 5.0 x 10^5 cells; 256-0.5 µM; mean ± SD of 3 biological repetitions (SD 0 not displayed); N/A = no antimicrobial activity observed
Method: as §1, §2, §3

[1] = tested on: Moniliophthora perniciosa basidiospores; test: Inhibition of M. perniciosa basidiospore germination; format: cell-based; settings: 1 × 10^6 basidiospores mL^−1, one hour with peptide (256-0.5 µM), 24 °C, counted after 4 hours on agar slides, biological triplicates; for IC50: concentration at which at least 50% of basidiospores germination was inhibited, read-out: Inhibitory concentration IC50, M. perniciosa basidiospores germination; for Inhibitory concentration IC95, M. perniciosa basidiospores germination: concentration at which at least 95% of basidiospores germination was inhibited
Method: The antimicrobial potential of T. cacao IAPs for inhibiting M. perniciosa basidiospores was evaluated. Briefly, 1 × 10^6 basidiospores mL^−1 were incubated for one hour with different concentrations of T. cacao IAPs (256-0.5 µM), at 24 °C, in a final volume of 100 µL. Autoclaved dH20 was used as a control. After incubation, 3 droplets of 10 µL each were placed in a slide coated with agar (1.2% (w/v)). Slides were incubated for 4, 24 and 48 hours at 24 °C. Slides were visualized using a DMRXA light microscope (Leica). Approximately 150–200 basidiospores per droplet from each time point were counted and compared to the control condition, which was defined as 100% germination. All experiments were performed in biological triplicates, with 3 technical repetitions each.

[2] = SC50 = IAP concentration that at least 50% of red blood cells remain intact, 128 µM–0.5 µM tested, PBS, 30 minutes, 37 °C, absorbance 540 nm

OC(Cn1cncn1)(Cn1cncn1)c1ccc(F)cc1F [Fluconazole, reference compound]
MIC (Cryptococcus neoformans; Cryptococcus neoformans, ATCC28957, 72 h, pH 7, read-out: Minimum inhibitory concentration, Cryptococcus neoformans): 1.63 µM (≈ 0.499 µg/mL)
MIC (Candida albicans; Candida albicans, ATCC90028, 48 h, pH 7, read-out: Minimum inhibitory concentration, Candida albicans): 1.63 µM (≈ 0.499 µg/mL)

GFKLGRKLVKVFKWII-NH2 [Gr01]
Hemolytic activity (% ± SD) at 1 µM (human red blood cells): 0.09 ± 0.01%
Hemolytic activity (% ± SD) at 2 µM (human red blood cells): 0.00 ± 0.00%
Hemolytic activity (% ± SD) at 4 µM (human red blood cells): 0.30 ± 0.15%
Hemolytic activity (% ± SD) at 8 µM (human red blood cells): 1.96 ± 0.89%
Hemolytic activity (% ± SD) at 16 µM (human red blood cells): 3.82 ± 1.28%
Hemolytic activity (% ± SD) at 32 µM (human red blood cells): 11.33 ± 1.66%
Hemolytic activity (% ± SD) at 64 µM (human red blood cells): 33.9 9 ± 5.46%
Hemolytic activity (% ± SD) at 128 µM (human red blood cells): 51.72 ± 7.33%
Hemolytic activity of human red blood cells (%) SC50 (human red blood cells): 64 µM
Concentration that induced 50% hemolysis (human red blood cells; red cells of human): 64 µM
Minimum inhibitory concentration, Bacillus subtilis (Bacillus subtilis): 1.0 µM
Minimum inhibitory concentration, Pseudomonas aeruginosa (Pseudomonas aeruginosa): 3.33 ± 1.15 µM
Minimum inhibitory concentration, Escherichia coli (Escherichia coli): 0.5 µM
Minimum inhibitory concentration, Cryptococcus neoformans (Cryptococcus neoformans): 1.0 µM
Minimum inhibitory concentration, Candida albicans (Candida albicans): 1.0 µM
Minimum inhibitory concentration, Bacillus cereus (Bacillus cereus): 1.0 µM
Minimum inhibitory concentration, Staphylococcus aureus (Staphylococcus aureus): 0.83 ± 0.29 µM

GLWSTIKQKGKEAAIAAAKAAGQAALGAL-NH2 [DS01, Dermaseptin DS01, reference compound]
Hemolytic activity (% ± SD) at 1 µM (human red blood cells): 0.00 ± 0.00%
Hemolytic activity (% ± SD) at 2 µM (human red blood cells): 0.19 ± 0.02%
Hemolytic activity (% ± SD) at 4 µM (human red blood cells): 0.17 ± 0.04%
Hemolytic activity (% ± SD) at 8 µM (human red blood cells): 0.03 ± 0.01%
Hemolytic activity (% ± SD) at 16 µM (human red blood cells): 0.48 ± 0.12%
Hemolytic activity (% ± SD) at 32 µM (human red blood cells): 0.79 ± 0.30%
Hemolytic activity (% ± SD) at 64 µM (human red blood cells): 3.70 ± 1.34%
Hemolytic activity of human red blood cells (%) SC50 (human red blood cells; [2]): >128 µM
IC50 [1]: 128 µM
Inhibitory concentration IC95, M. perniciosa basidiospores germination [1]: 256 µM

GSLHGFMYKYLKNMVLNLF-NH2 [Tc06]
Hemolytic activity (% ± SD) at 1 µM (human red blood cells): 0.00 ± 0.00%
Hemolytic activity (% ± SD) at 2 µM (human red blood cells): 0.00 ± 0.00%
Hemolytic activity (% ± SD) at 4 µM (human red blood cells): 0.00 ± 0.00%
Hemolytic activity (% ± SD) at 8 µM (human red blood cells): 0.00 ± 0.00%
Hemolytic activity (% ± SD) at 16 µM (human red blood cells): 0.01 ± 0.00%
Hemolytic activity (% ± SD) at 32 µM (human red blood cells): 0.77 ± 0.23%
Hemolytic activity (% ± SD) at 64 µM (human red blood cells): 1.18 ± 0.23%
Hemolytic activity (% ± SD) at 128 µM (human red blood cells): 7.67 ± 1.69%
Hemolytic activity of human red blood cells (%) SC50 (human red blood cells): >128 µM
IC50 [1]: 32 µM
Inhibitory concentration IC95, M. perniciosa basidiospores germination [1]: 64 µM

GSLHGFMYKYLKTLVLRLY-NH2 [Zm01]
Hemolytic activity (% ± SD) at 1 µM (human red blood cells): 0.00 ± 0.00%
Hemolytic activity (% ± SD) at 2 µM (human red blood cells): 0.02 ± 0.00%
Hemolytic activity (% ± SD) at 4 µM (human red blood cells): 0.00 ± 0.00%
Hemolytic activity (% ± SD) at 8 µM (human red blood cells): 0.00 ± 0.00%
Hemolytic activity (% ± SD) at 16 µM (human red blood cells): 0.66 ± 0.14%
Hemolytic activity (% ± SD) at 32 µM (human red blood cells): 2.45 ± 1.03%
Hemolytic activity (% ± SD) at 64 µM (human red blood cells): 6.56 ± 1.87%
Hemolytic activity (% ± SD) at 128 µM (human red blood cells): 15.72 ± 3.48%
Hemolytic activity of human red blood cells (%) SC50 (human red blood cells): >128 µM
Minimum inhibitory concentration, Bacillus subtilis (Bacillus subtilis): 8.0 µM
Minimum inhibitory concentration, Pseudomonas aeruginosa (Pseudomonas aeruginosa): 16.0 µM
Minimum inhibitory concentration, Escherichia coli (Escherichia coli): 13.33 ± 4.61 µM
Minimum inhibitory concentration, Cryptococcus neoformans (Cryptococcus neoformans): 4.0 µM
Minimum inhibitory concentration, Candida albicans (Candida albicans): 6.67 ± 2.31 µM
Minimum inhibitory concentration, Bacillus cereus (Bacillus cereus): 64.0 µM
Minimum inhibitory concentration, Staphylococcus aureus (Staphylococcus aureus): 16 µM

IVNHLVKLFDKGLNSIVNLR-NH2 [Tc05]
Hemolytic activity (% ± SD) at 1 µM (human red blood cells): 0.11 ± 0.02%
Hemolytic activity (% ± SD) at 2 µM (human red blood cells): 0.07 ± 0.01%
Hemolytic activity (% ± SD) at 4 µM (human red blood cells): 0.15 ± 0.05%
Hemolytic activity (% ± SD) at 8 µM (human red blood cells): 0.07 ± 0.04%
Hemolytic activity (% ± SD) at 16 µM (human red blood cells): 0.50 ± 0.10%
Hemolytic activity (% ± SD) at 32 µM (human red blood cells): 0.21 ± 0.09%
Hemolytic activity (% ± SD) at 64 µM (human red blood cells): 0.78 ± 0.47%
Hemolytic activity of human red blood cells (%) SC50 (human red blood cells; [2]): >128 µM
IC50 [1]: 128 µM
Inhibitory concentration IC95, M. perniciosa basidiospores germination [1]: 256 µM

From PMC5643462, “Encrypted Antimicrobial Peptides from Plant Proteins” (Scientific Reports, 2017)
